From ChEMBL document CHEMBL4184118, “Carbazole-containing amides and ureas: Discovery of cryptochrome modulators as antihyperglycemic agents” (Bioorg Med Chem Lett, 2018)
Converted amounts (≈) assume the structure as drawn. The source made the active and inactive calls. The rule behind the calls is not given here.

How the values were obtained:
[1] = target: Voltage-gated inwardly rectifying potassium channel KCNH2 (Homo sapiens, UniProt Q12809); experiment: Inhibition of human ERG
[2] = MRT in db/db mouse at 30 mg/kg, po qd after 1 to 24 hrs; format: ADME, organism-based; conditions: in vivo
[3] = test system: Mus musculus; experiment: In vivo induction of circadian clock modulation in db/db mouse at 30 mg/kg, po; format: functional, organism-based
[4] = test system: Mus musculus; experiment: Antidiabetic activity in obese insulin-resistant po dosed db/db mouse assessed as reduction in blood glucose AUC administered qd for 7 days by oGTT; format: functional, organism-based
[5] = test system: Mus musculus; experiment: Hypoglycemic activity in obese insulin-resistant db/db mouse assessed as decrease in fasting blood glucose level at 100 mg/kg, po qd dosed for 7 days relative to control; format: functional; design: scale not given: the % may be the effect or the level left
[6] = Half life in db/db mouse at 30 mg/kg, po qd; format: ADME, organism-based; conditions: in vivo
[7] = Total Cmax in db/db mouse at 30 mg/kg, po qd after 1 to 24 hrs; format: ADME, organism-based; design: dose 30 mg/kg, route oral; conditions: in vivo
[8] = Kinetic solubility in simulated gastric fluid; format: physicochemical; conditions: read-out: Kinetic_solubility
[9] = Drug uptake in db/db mouse white adipose at 30 mg/kg, po measured at 1 to 24 hrs; format: ADME, organism-based, White adipose tissue; conditions: in vivo
[10] = Plasma concentration in db/db mouse at 30 mg/kg, po measured at 1 to 24 hrs; format: ADME, organism-based; conditions: in vivo
[11] = test system: Salmonella typhimurium; experiment: Genotoxicity in Salmonella typhimurium by Ames test; format: toxicity, organism-based; conditions: salmonella enterica subsp. enterica serovar typhimurium
[12] = test system: Mus musculus; experiment: Unbound Cmax in db/db mouse at 30 mg/kg, po qd after 1 to 24 hrs; format: ADME, organism-based; conditions: in vivo
[13] = Drug uptake in db/db mouse liver at 30 mg/kg, po measured at 1 to 24 hrs; format: ADME, organism-based; conditions: in vivo
[14] = Drug uptake in db/db mouse skeletal muscle at 30 mg/kg, po measured at 1 to 24 hrs; format: ADME, organism-based, Skeletal muscle tissue; conditions: in vivo
[15] = test system: Mus musculus; experiment: Antidiabetic activity in obese insulin-resistant db/db mouse assessed as reduction in blood glucose AUC at 100 mg/kg, po qd dosed for 7 days by oGTT relative to control; format: functional; design: scale not given: the % may be the effect or the level left
[16] = Drug uptake in db/db mouse brown adipose at 30 mg/kg, po measured at 1 to 24 hrs; format: ADME, organism-based, Brown adipose tissue; conditions: in vivo

Voltage-gated inwardly rectifying potassium channel KCNH2, sequence (Q12809 whole entry): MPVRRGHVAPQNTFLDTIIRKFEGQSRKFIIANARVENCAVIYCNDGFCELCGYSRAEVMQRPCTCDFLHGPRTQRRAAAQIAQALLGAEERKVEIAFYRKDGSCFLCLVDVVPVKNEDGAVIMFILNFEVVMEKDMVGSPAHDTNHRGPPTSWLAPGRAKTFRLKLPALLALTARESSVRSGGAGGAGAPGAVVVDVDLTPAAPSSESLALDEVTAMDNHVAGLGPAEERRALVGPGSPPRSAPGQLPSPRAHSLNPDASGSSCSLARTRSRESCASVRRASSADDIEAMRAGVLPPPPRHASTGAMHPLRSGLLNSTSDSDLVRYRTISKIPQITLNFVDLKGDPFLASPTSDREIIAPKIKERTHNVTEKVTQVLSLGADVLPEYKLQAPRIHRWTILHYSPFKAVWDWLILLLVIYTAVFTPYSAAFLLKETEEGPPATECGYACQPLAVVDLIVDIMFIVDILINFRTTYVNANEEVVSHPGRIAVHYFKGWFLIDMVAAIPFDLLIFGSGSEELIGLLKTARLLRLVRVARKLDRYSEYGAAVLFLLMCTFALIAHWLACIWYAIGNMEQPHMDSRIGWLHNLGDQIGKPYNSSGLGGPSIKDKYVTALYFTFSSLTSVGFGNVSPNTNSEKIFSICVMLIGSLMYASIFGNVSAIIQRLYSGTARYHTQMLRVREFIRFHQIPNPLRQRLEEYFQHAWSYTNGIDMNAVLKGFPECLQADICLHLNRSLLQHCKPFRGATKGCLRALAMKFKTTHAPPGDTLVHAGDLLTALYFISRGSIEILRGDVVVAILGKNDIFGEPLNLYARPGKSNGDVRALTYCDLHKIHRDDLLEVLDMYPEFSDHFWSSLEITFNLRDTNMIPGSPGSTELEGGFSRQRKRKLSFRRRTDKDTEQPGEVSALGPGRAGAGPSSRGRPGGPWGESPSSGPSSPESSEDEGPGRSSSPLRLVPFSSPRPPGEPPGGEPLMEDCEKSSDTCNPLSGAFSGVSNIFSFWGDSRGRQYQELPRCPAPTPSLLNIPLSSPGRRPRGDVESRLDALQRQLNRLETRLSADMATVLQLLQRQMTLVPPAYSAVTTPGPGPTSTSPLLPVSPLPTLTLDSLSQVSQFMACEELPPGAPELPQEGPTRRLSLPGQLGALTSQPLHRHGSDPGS

In the case of O=C1NCCN1CC(O)Cn1c2ccc(F)cc2c2cc(F)ccc21 (stereo unspecified), the “inhibition (INH)” value [1] is reported as “Not Active”, the MRT [2] is reported as 6.76 h and the Activity [3] is reported as “Active”. The Activity [4] was “Dose-dependent effect”, the Activity [5] was 14% and the half-life [6] was 2.83 h. The Cmax [7] was 1090 nM, the solubility kinetic [8] was 142 µM (≈ 48.9 µg/mL) and the Drug uptake [9] was “Active”. For the same compound, the Drug uptake [10] was “Active”, the Activity [11] was “Non-Toxic” and the fCmax [12] was 0.056 µM. For the same compound, the Drug uptake [13] was “Active”, the Drug uptake [14] was “Active” and the Activity [15] was 39%. The Drug uptake [16] was “Active”.
